Where “and” joins values, the source holds several entries; their conditions need not be identical. Equal entries are not always repeated.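 Each compound was tested at five concentrations against cells in 96-well plates for 48 hours. GI50 = concentration required for 50% inhibition of growth. TGI: total growth inhibition.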

Among the test systems are 786-0 renal; A498 renal; CCRF-CEM leukemia; DMS 273 small cell lung; HOP-18 NSCLC; NCI-H226 lung; RXF 393 renal; SF-295 CNS; SK-MEL-5 melanoma; T-47D breast.
Experiment in all cases: DTP human tumour cell line panel, 48 h

By TGI is commonly meant the concentration at which net growth stops. A low value points to more potent growth arrest. Regarding `CCOC(OCC)C(CC)[Se]c1ccccc1[N+](=O)[O-]` (centres undefined), the TGI in the assay on 786-0 renal was more than 46.7 µM; in the assay with A498 renal, 11.6 µM; in the assay on CCRF-CEM leukemia, more than 62.5 µM; in the assay with DMS 273 small cell lung, 11.3 µM; in the assay on HOP-18 NSCLC, more than 100 µM; with NCI-H226 lung it was 18.4 µM. Further, the TGI in the assay on RXF 393 renal is 5.59 µM; in the assay with SF-295 CNS it was more than 22.9 µM; with SK-MEL-5 melanoma, 30.9 µM; in the assay with T-47D breast, more than 100 µM.
As to `COC(=O)c1ccccc1NC(=O)C(=O)CC(=O)c1ccccc1NC1=CC(=O)C(=O)c2ccccc21`, the TGI is 30.8 µM in the assay with 786-0 renal; more than 56.2 µM with A498 renal; 33.9 µM in the assay on CCRF-CEM leukemia; 25.8 µM in the assay with DMS 273 small cell lung; 29.6 µM with HOP-18 NSCLC; 49.7 µM with NCI-H226 lung. In addition, the TGI with RXF 393 renal was 57.5 µM; in the assay with SF-295 CNS, more than 49.8 µM; with SK-MEL-5 melanoma, 14.2 µM; in the assay on T-47D breast, more than 95 µM.
By GI50 is commonly meant the concentration at which growth is held to half of that of the control. For `CO[C@H]1[C@H](O)[C@H](O[C@H]2CC[C@@]3(C)[C@H](CC[C@@H]4[C@@H]3CC[C@]3(C)[C@@H](C5=CC(=O)OC5)CC[C@]43O)C2)O[C@@H](C)[C@@H]1O`, the TGI is 0.000687 µM with 786-0 renal; 0.0252 µM with A498 renal; 0.00107 µM with CCRF-CEM leukemia; 0.00303 µM in the assay on DMS 273 small cell lung; 0.00382 µM with HOP-18 NSCLC; 0.0192 µM and < 0.0129 µM with NCI-H226 lung. The TGI is 0.00224 µM and < 0.0107 µM with SF-295 CNS; 0.00194 µM in the assay with SK-MEL-5 melanoma; 0.0194 µM in the assay with T-47D breast. The GI50 with CCRF-CEM leukemia was 0.000406 µM; in the assay with T-47D breast it was 0.00395 µM.
Turning to `CCc1cccc(CC)c1NC(=S)NC(=O)c1ccc(Br)cc1`, the TGI with 786-0 renal was more than 100 µM; with A498 renal, more than 100 µM; in the assay with CCRF-CEM leukemia, more than 31.6 µM; in the assay on DMS 273 small cell lung, more than 100 µM; in the assay on HOP-18 NSCLC it was more than 100 µM; in the assay on NCI-H226 lung, more than 95.5 µM. In addition, the TGI in the assay with RXF 393 renal was more than 78 µM; with SF-295 CNS, more than 100 µM; in the assay with SK-MEL-5 melanoma, more than 71.6 µM; with T-47D breast, more than 100 µM.
On to `O=C([O-])c1ccc2c(c1)-c1nc-2nc2[n-]c(nc3nc(nc4[n-]c(n1)c1ccc(C(=O)[O-])cc41)-c1cc(C(=O)[O-])ccc1-3)c1ccc(C(=O)[O-])cc21.[Fe+2]`, for which the GI50 in the assay with 786-0 renal was more than 30.7 µM; with A498 renal, more than 50 µM; in the assay with CCRF-CEM leukemia, more than 22.2 µM; in the assay on DMS 273 small cell lung, more than 43.9 µM; with HOP-18 NSCLC, more than 50 µM; in the assay with NCI-H226 lung, more than 50 µM. Also, the GI50 with RXF 393 renal, with SF-295 CNS and with SK-MEL-5 melanoma was more than 50 µM each time. In addition, the concentration for total growth inhibition (TGI) with 786-0 renal was more than 50 µM; in the assay with A498 renal, more than 50 µM; in the assay on CCRF-CEM leukemia, more than 31.3 µM; with DMS 273 small cell lung it was more than 50 µM; in the assay with HOP-18 NSCLC, more than 50 µM; in the assay with NCI-H226 lung it was more than 50 µM. Further, the TGI with RXF 393 renal, in the assay on SF-295 CNS and in the assay on SK-MEL-5 melanoma was more than 50 µM each time.
As for `CCOP(=O)(CC(=O)C1=C(O)C(CCCNC(=O)OC(C)(C)C)N(Cc2ccc(OC)c(OC)c2)C1=O)OCC` (centres undefined), the TGI in the assay on 786-0 renal, in the assay with A498 renal, in the assay with CCRF-CEM leukemia, in the assay on DMS 273 small cell lung, in the assay with HOP-18 NSCLC and in the assay with NCI-H226 lung was more than 100 µM throughout. The TGI with RXF 393 renal, with SF-295 CNS and in the assay on SK-MEL-5 melanoma was more than 100 µM throughout.
Regarding `C#CCN1CCN(C(=S)N/N=C(\C)c2ccccn2)CC1`, the GI50 with 786-0 renal was 0.243 µM; in the assay on A498 renal, 3.31 µM; in the assay with DMS 273 small cell lung it was 0.0092 µM; with RXF 393 renal, 3.95 µM; in the assay on SF-295 CNS it was 2.11 µM. The TGI with 786-0 renal is 4.62 µM and 4.87 µM; in the assay with A498 renal, 5.47 µM and 5.21 µM; with CCRF-CEM leukemia it was 2.14 µM; in the assay on DMS 273 small cell lung, 4.57 µM; in the assay with HOP-18 NSCLC, 10.6 µM; with NCI-H226 lung, 4.66 µM. For the same molecule, the TGI is 5.46 µM and 3.48 µM in the assay with RXF 393 renal; 7.91 µM and 4.8 µM in the assay with SF-295 CNS; 5.05 µM and 2.86 µM in the assay with SK-MEL-5 melanoma; 3.6 µM and 4.06 µM in the assay on T-47D breast.
For the molecule `CCC(C(=O)[O-])C(=O)[O-].CCC(C(=O)[O-])C(=O)[O-].N.N.NCCCCCN.[Pt+4].[Pt+4]`, the GI50 with 786-0 renal was more than 100 µM; in the assay on A498 renal, more than 100 µM; in the assay on CCRF-CEM leukemia, 55.9 µM; with DMS 273 small cell lung, 95.8 µM; in the assay on HOP-18 NSCLC, more than 100 µM; in the assay on NCI-H226 lung it was 23.4 µM. For the same molecule, the GI50 in the assay on RXF 393 renal, with SF-295 CNS and in the assay on SK-MEL-5 melanoma was more than 100 µM in each case. The TGI in the assay with 786-0 renal was more than 100 µM; in the assay on A498 renal, more than 100 µM; in the assay with CCRF-CEM leukemia, more than 100 µM; in the assay on DMS 273 small cell lung, more than 100 µM; with HOP-18 NSCLC it was more than 100 µM; in the assay on NCI-H226 lung, 94.7 µM. In addition, the concentration for total growth inhibition (TGI) in the assay with RXF 393 renal, with SF-295 CNS and in the assay on SK-MEL-5 melanoma was more than 100 µM each time.
With `CN(C)c1ccc(/C=C2\CNC/C(=C\c3ccc(N(C)C)cc3)C2=O)cc1`, the TGI was 31.6 µM in the assay on 786-0 renal; 39.5 µM in the assay with A498 renal; more than 100 µM in the assay with CCRF-CEM leukemia; 27.6 µM in the assay with DMS 273 small cell lung; 36.8 µM with HOP-18 NSCLC; more than 100 µM with NCI-H226 lung. For the same molecule, the TGI in the assay on RXF 393 renal is 44 µM; in the assay on SF-295 CNS, more than 100 µM; in the assay on SK-MEL-5 melanoma it was more than 100 µM.
For `O=C(CC/C(C/C(=N/O)c1ccc(F)cc1)=N/O)N(Cc1ccccc1)Cc1ccccc1`, the TGI in the assay with 786-0 renal, in the assay on A498 renal, in the assay with CCRF-CEM leukemia, in the assay with DMS 273 small cell lung, in the assay on HOP-18 NSCLC and with NCI-H226 lung was more than 100 µM each time. The TGI in the assay with RXF 393 renal, in the assay with SF-295 CNS and in the assay with SK-MEL-5 melanoma was more than 100 µM in each case.
